Experimental data reported in patent US20250382269A1 (CFD Research Corporation, priority 2019, published 2025).

How the values were obtained:
HepaRG cells = assay: Cytotoxicity MTT assay in HepaRG cells; type: cell-based, human; details: 48 h
Procedure: (§1) Additionally, the antimicrobial compounds were analyzed for cytotoxicity. […] We utilized the standard MTT assay (Promega CellTiter 96) and GraphPad Prism 7 software to determine EC50 values for each analogue. Briefly, 20,000 HepG2 cells in 200 μl of the ATCC recommended media were seeded in each well of a 96-well plate with a moisture barrier created in the outermost wells. The cells were allowed to attach overnight at 37° C., and then observed under phase contrast microscopy for proper morphological characteristics. If cells appeared healthy and attached, test compounds were added in 7 concentrations from […] (n=3) from freshly prepared DMSO stock plates. […] Once incubations were complete, the spectrophotometric absorbance of the samples was measured at a wavelength of 595 nm. […] For the HepaRG assay, NoSpin HepaRG™ cells (Lonza, cat #NSHPRG) were thawed and plated with 20,000 cells per well. They were allowed to attach for 4 h (optimal DME profile per Lonza's testing) before dosing following the identical protocol as above.

[1] = system: S. aureus cell wall synthesis; assay: Macromolecular synthesis assay (glucosamine incorporation into cell wall); type: cell-based; details: dose-response, FIG. 2A-2B
[2] = system: branched chain amino acid synthesis pathway (ILVB); assay: RNA sequencing / transcriptomic and metabolic mechanism of action studies
[3] = system: B. subtilis / cytotoxicity EC50; assay: Selectivity index (SI) using B. subtilis MICs
Procedure: as §1

Candida glabrata = assay: MIC/MFC against Candida glabrata strains; type: cell-based; details: Nakaseomyces glabratus; #584
[4] = MIC with and without 2-ketobutyrate (synergy); type: cell-based

Compound: Oc1ccc(Sc2c[nH]c3ccccc23)cc1 [Compound 156I, 4-((1H-indol-3-yl)thio)phenol]
- Cytotoxicity HepaRG EC50 (HepaRG cells): >20 µg/mL

Compound: Brc1ccc2[nH]cc(Sc3ccccc3Br)c2c1 [Compound 174I, 5-bromo-3-((2-bromophenyl)thio)-1H-indole]
- cell wall synthesis inhibition (glucosamine incorporation) [1]: substantial cell wall synthesis inhibition
- mechanism of action from transcriptomic and metabolic studies [2]: branched chain amino acid biosynthesis inhibition

Compound: CN[C@H](CC(C)C)C(=O)N[C@H]1C(=O)N[C@@H](CC(N)=O)C(=O)N[C@H]2C(=O)N[C@H]3C(=O)N[C@H](C(=O)N[C@H](C(=O)O)c4cc(O)cc(O)c4-c4cc3ccc4O)[C@H](O)c3ccc(c(Cl)c3)Oc3cc2cc(c3O[C@@H]2O[C@H](CO)[C@@H](O)[C@H](O)[C@H]2O[C@H]2C[C@](C)(N)[C@H](O)[C@H](C)O2)Oc2ccc(cc2Cl)[C@H]1O [vancomycin, reference compound]
- cell wall synthesis inhibition (glucosamine incorporation) [1]: increasingly inhibits glucosamine from incorporating into a cell wall

Compound: OCc1[nH]c2ccc(Br)cc2c1Sc1ccccc1Br [Compound 177H, (5-bromo-3-((2-bromophenyl)thio)-1H-indol-2-yl)methanol]
- SI (selectivity index) [3]: 20.4

Compound: FC(F)(F)c1ccc2[nH]cc(Sc3ccccc3C(F)(F)F)c2c1 [Compound 177F, 5-(trifluoromethyl)-3-((2-(trifluoromethyl)phenyl)thio)-1H-indole]
- SI (selectivity index) [3]: 19.1

Compound: Clc1c(Cl)c(Cl)c(Sc2c[nH]c3ccc(Br)cc23)c(Cl)c1Cl [Compound 174AD, 5-bromo-3-((perchlorophenyl)thio)-1H-indole]
- MIC (Candida glabrata): > 50 µg/mL

Compound: Fc1ccccc1Sc1c[nH]c2ccc(C(F)(F)F)cc12 [Compound 177D, 3-((2-fluorophenyl)thio)-5-(trifluoromethyl)-1H-indole]
- SI (selectivity index) [3]: 17.4

Compound: Oc1ccccc1Sc1c[nH]c2ccc(C(F)(F)F)cc12 [Compound 177A, 2-((5-(trifluoromethyl)-1H-indol-3-yl)thio)phenol]
- SI (selectivity index) [3]: 61.8

Compound: Nc1ccccc1Sc1c[nH]c2ccc(Br)cc12 [Compound 174M, 2-((5-bromo-1H-indol-3-yl)thio)aniline]
- MIC with 200 μg/mL 2-ketobutyrate ([4]; with 200 μg/mL 2-ketobutyrate): 0.781
- MIC with 800 μg/mL 2-ketobutyrate ([4]; with 800 μg/mL 2-ketobutyrate): less than 0.39
- Cytotoxicity HepaRG EC50 (HepaRG cells): 85 µg/mL
- mechanism of action from transcriptomic and metabolic studies [2]: branched chain amino acid biosynthesis inhibition

Compound: Oc1ccc(Sc2c[nH]c3ccc(C(F)(F)F)cc23)cc1 [Compound 177B, 4-((5-(trifluoromethyl)-1H-indol-3-yl)thio)phenol]
- SI (selectivity index) [3]: 17.8

Compound: CCc1ccccc1Sc1c(CO)[nH]c2ccc(C(F)(F)F)cc12 [Compound 177I, (3-((2-ethylphenyl)thio)-5-(trifluoromethyl)-1H-indol-2-yl)methanol]
- SI (selectivity index) [3]: 10.0

Compound: Brc1ccc(Sc2c[nH]c3ccccc23)cc1 [Compound 156K, 3-((4-bromophenyl)thio)-1H-indole]
- Cytotoxicity HepaRG EC50 (HepaRG cells): 32 µg/mL

Compound: Fc1ccc2[nH]cc(Sc3ccccc3Br)c2c1 [Compound 177E, 3-((2-bromophenyl)thio)-5-fluoro-1H-indole]
- SI (selectivity index) [3]: 20.3
